Measurements: patent publication US5780433A (priority 1996, dated 1998)
Where “and” joins values, the source holds several entries; their conditions need not be identical. Equal values may be shown once. Entries after “also recorded” stand apart in the source; their conditions may differ.

Experiments:
[1] = test system: nicotine-stimulated [3H]-dopamine release from rat striatal synaptosomes; assay type: cell-based
[2] = test system: potassium-stimulated dopamine release; assay type: cell-based, rat
[3] = test system: nicotine-stimulated norepinephrine release, hippocampal synaptosomes; assay type: cell-based, rat
[4] = target: α3β2 nAChRs expressed in Xenopus oocytes (Rattus norvegicus, UniProt P04757+P12390); settings: read-out: IC50, block of α3β2 nAChRs; cited from earlier work
[5] = test system: other nAChR subunit combinations (α7, α4β2, α2β2, α3β4, α1β1δγ, α4β4); settings: cited from earlier work
[6] = test system: nicotine-stimulated norepinephrine release, hippocampal synaptosomes; settings: cited from earlier work
[7] = test system: norepinephrine release, hippocampal slice preparations; settings: cited from earlier work
[8] = test system: nicotine-stimulated [3H]-dopamine release from rat striatal synaptosomes; settings: read-out: EC50, increase of [3H]-dopamine release; cited from earlier work

α3β2 nAChRs expressed in Xenopus oocytes, sequence (P04757 26-499 limits assumed): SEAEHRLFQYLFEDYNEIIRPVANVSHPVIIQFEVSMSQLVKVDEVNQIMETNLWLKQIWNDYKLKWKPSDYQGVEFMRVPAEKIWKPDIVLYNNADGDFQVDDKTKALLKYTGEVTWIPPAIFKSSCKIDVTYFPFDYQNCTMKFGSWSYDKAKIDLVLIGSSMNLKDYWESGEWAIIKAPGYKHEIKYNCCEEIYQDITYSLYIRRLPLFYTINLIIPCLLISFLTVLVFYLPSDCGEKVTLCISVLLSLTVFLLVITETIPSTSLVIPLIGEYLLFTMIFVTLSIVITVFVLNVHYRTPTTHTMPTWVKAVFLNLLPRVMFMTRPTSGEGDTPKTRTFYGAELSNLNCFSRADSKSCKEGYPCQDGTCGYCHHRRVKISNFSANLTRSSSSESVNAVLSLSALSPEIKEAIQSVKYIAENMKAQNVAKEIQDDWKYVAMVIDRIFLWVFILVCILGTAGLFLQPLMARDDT
α3β2 nAChRs expressed in Xenopus oocytes, sequence (P12390 25-500 limits assumed): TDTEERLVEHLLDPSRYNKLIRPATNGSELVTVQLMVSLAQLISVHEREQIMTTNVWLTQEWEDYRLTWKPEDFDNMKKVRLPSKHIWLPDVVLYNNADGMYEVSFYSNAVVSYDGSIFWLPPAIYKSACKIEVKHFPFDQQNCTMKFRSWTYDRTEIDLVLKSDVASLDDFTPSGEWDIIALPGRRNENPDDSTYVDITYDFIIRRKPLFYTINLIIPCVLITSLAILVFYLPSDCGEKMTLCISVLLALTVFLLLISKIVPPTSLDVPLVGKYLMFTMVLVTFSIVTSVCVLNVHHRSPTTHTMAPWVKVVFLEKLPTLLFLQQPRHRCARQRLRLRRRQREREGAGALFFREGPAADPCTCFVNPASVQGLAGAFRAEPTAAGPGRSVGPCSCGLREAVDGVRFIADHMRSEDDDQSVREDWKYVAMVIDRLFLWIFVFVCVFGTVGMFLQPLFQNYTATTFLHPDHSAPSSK

**Q.** For α-conotoxin MII, which “block of nicotine-evoked [3H]-dopamine release” value [1] is on record?
**A.** The value was “significantly blocked”.

**Q.** And the “block of nicotine-stimulated [3H]-dopamine release” value [1]?
**A.** The value was 33% and 34% and 44% and 50%.

**Q.** And the “block of nicotine-stimulated [3H]-dopamine release (words)” value [1]?
**A.** Its value is “nonsignificant trend toward block”.

**Q.** And the “block of nicotine-stimulated dopamine release” value [1]?
**A.** Its value is “blocks a fraction; also recorded: blocks a part but not all”.

**Q.** What about the “effect on potassium-stimulated dopamine release” value [2] of the same compound?
**A.** Its value is “no effect”.

**Q.** What about the “block of nicotine-stimulated norepinephrine release” value [3] of the same compound?
**A.** The value was “significant block”.

**Q.** What about the “block of nicotine-stimulated synaptosomal norepinephrine release” value [3] of the same compound?
**A.** Its value is “do not block”.

**Q.** And the IC50 [4]?
**A.** The IC50 was 0.5 nM.

**Q.** And the “affinities for other nAChR subunit combinations relative to α3β2” value [5]?
**A.** Its value is “two to four orders-of-magnitude higher”.

**Q.** What about the “discrimination between the α3/β2 and α3/β4 interface” value [5] of the same compound?
**A.** The value was “four orders-of-magnitude”.

**Q.** With `NC1=N[C@H](O)[C@H]2[C@H]3O[C@]4(O)O[C@@H]([C@@H](O)[C@@]2(N1)[C@@H]4O)[C@]3(O)CO` [tetrodotoxin] as the compound, how does the “effect on nicotine-stimulated synaptosomal release of norepinephrine” value [6] read?
**A.** The value was “not affected”.

**Q.** And the “block of nicotine-stimulated norepinephrine release from hippocampal slices” value [7]?
**A.** The value was “majority”.

**Q.** Which “block of nicotine-stimulated dopamine release” value [1] does the source give for α-conotoxin ImI [reference compound] here?
**A.** The value was “do not block; also recorded: no effect”.

**Q.** Which “block of nicotine-stimulated dopamine release” value [1] does the source give for `CNC1(C)C2CCC(C2)C1(C)C` (centres unmarked) [mecamylamine, reference compound] here?
**A.** The value was “fully blocked”.

**Q.** What does the source list for `CN1CCCC1c1cccnc1.O=C(O)C(O)C(O)C(=O)O` (single isomer, unassigned; (-)) [nicotine, (-)Nicotine hydrogen tartrate]?
**A.** EC50 [6]: 6500 nM; norepinephrine release over baseline [7]: ~ 700%; EC50 [8]: 160 nM
